In patent US9522888B2, “Substituted bicyclic compounds” (BRISTOL-MYERS SQUIBB COMPANY, priority 2014, dated 2016):
Where two headings read alike, the source gives them in different places.

Legend:
human S1P1 = human S1P1 (Homo sapiens (Human), UniProt P21453); assay: S1P1 binding assay (33P-S1P radioligand competition, CHO cell membranes)
Method: Membranes were prepared from CHO cells expressing human S1P1. Cells pellets (1×10^9 cells/pellet) were suspended in buffer containing 20 mM HEPES (4-(2-hydroxyethyl)-1-piperazineethanesulfonic acid), pH 7.5, 50 mM NaCl, 2 mM EDTA (Ethylenediaminetetraacetic acid) and Protease Inhibitor cocktail (Roche), and disrupted on ice using the Polytron homogenizer. The homogenate was centrifuged at 20,000 rpm (48,000 g) and the supernatant was discarded. The membrane pellets were resuspended in buffer containing 50 mM HEPES, pH 7.5, 100 mM NaCl, 1 mM MgCl2, 2 mM EDTA and stored in aliquots at −80° C. after protein concentration determination.

[1] = molecular target: S1P1 (membranes prepared from S1P1/CHO cells) (Homo sapiens (Human), UniProt P21453); assay: Receptor [35S] GTPγS binding assay (S1P1 GTPγS); format: biochemical; conditions: for activity as an agonist of S1P1: GTPγS S1P1 binding assay, result in words
Method: (§1) Receptor [^35S] GTPγS Binding Assays: (S1P1 GTPγS/S1P3 GTPγS)
Compounds were loaded in a 384 Falcon v-bottom plate (0.5 μl/well in a 11 point, 3-fold dilution). Membranes prepared from S1P1/CHO cells or EDG3-Gal5-bla HEK293T cells (EDG3 equivalent S1P3) were added to the compound plate (40 μl/well, final protein 3 μg/well) with MULTIDROP®. [^35S] GTP (1250 Ci/mmol, Perkin Elmer) was diluted in assay buffer: 20 mM HEPES, pH7.5, 10 mM MgCl2, 150 mM NaCl, 1 mM EGTA (ethylene glycol tetraacetic acid), 1 mM DTT (Dithiothreitol), 10 μM GDP, 0.1% fatty acid free BSA, and 10 μg/ml Saponin to 0.4 nM. 40 μl of the [^35S] GTP solution was added to the compound plate with a final concentration of 0.2 nM. The reaction was kept at room temperature for 45 min. At the end of incubation, all the mixtures in the compound plate were transferred to Millipore 384-well FB filter plates via the VELOCITY11® Vprep liquid handler. The filter plate was washed with water 4 times by using the manifold Embla plate washer and dried at 60° C. for 45 min. MicroScint 20 scintillation fluid (30 μl) was added to each well for counting on the Packard TOPCOUNT®. […]

[2] = molecular target: S1P3 (membranes prepared from EDG3-Gal5-bla HEK293T cells) (Homo sapiens (Human), UniProt Q99500); assay: Receptor [35S] GTPγS binding assay (S1P3 GTPγS); format: biochemical
Method: as §1
Compounds were loaded in a 384 Falcon v-bottom plate (0.5 μl/well in a 11 point, 3-fold dilution). Membranes prepared from S1P1/CHO cells or EDG3-Gal5-bla HEK293T cells (EDG3 equivalent S1P3) were added to the compound plate (40 μl/well, final protein 3 μg/well) with MULTIDROP®. [^35S] GTP (1250 Ci/mmol, Perkin Elmer) was diluted in assay buffer: 20 mM HEPES, pH7.5, 10 mM MgCl2, 150 mM NaCl, 1 mM EGTA (ethylene glycol tetraacetic acid), 1 mM DTT (Dithiothreitol), 10 μM GDP, 0.1% fatty acid free BSA, and 10 μg/ml Saponin to 0.4 nM. 40 μl of the [^35S] GTP solution was added to the compound plate with a final concentration of 0.2 nM. The reaction was kept at room temperature for 45 min. At the end of incubation, all the mixtures in the compound plate were transferred to Millipore 384-well FB filter plates via the VELOCITY11® Vprep liquid handler. The filter plate was washed with water 4 times by using the manifold Embla plate washer and dried at 60° C. for 45 min. MicroScint 20 scintillation fluid (30 μl) was added to each well for counting on the Packard TOPCOUNT®.
A smaller value for GTPγS S1P1 EC50 value indicated greater activity for the compound in the GTPγS S1P1 binding assay. A larger value for the GTPγS S1P3 EC50 value indicated less activity in the GTPγS S1P3 binding assay. […] Thus the compounds of the present invention may be used in treating, preventing, or curing various S1P1 receptor-related conditions while reducing or minimizing the side effects due to S1P3 activity. The selectivity of the compounds of the present invention indicate their potential use in treating, preventing, or curing autoimmune and inflammatory diseases such as multiple sclerosis, rheumatoid arthritis, inflammatory bowel disease, lupus, psoriasis, or vascular diseases, while reducing or minimizing possible side effects due to S1P3 activity. Other potential uses of the compounds of the present invention include minimizing or reducing rejection of transplanted organs, while reducing or minimizing side effects due to S1P3 activity.

hS1P1/CHO cells = hS1P1/CHO cells (Homo sapiens (Human), UniProt P21453); assay: hS1P1 ERK phosphorylation (S1P1 pERK); format: cell-based; conditions: phosphate examples
Method: hS1P1 ERK Phosphorylation (S1P1 pERK)
hS1P1/CHO cells were plated into BD Amine 384-well plates the day before the assay. On the day of the assay, growth medium was removed and replaced with serum-free medium (Ham's F-12 Invitrogen) and incubated for 2 hours. Test compounds pre-diluted in HBSS (Gibco)/20 mM HEPES (Gibco) were transferred to the cell plates and incubated for 7 minutes at 37° C. Cells were lysed in lysis buffer (Perkin Elmer) and phospho-ERK was measured using the SureFire pERK kit (Perkin Elmer) as described by the manufacturer. Data was plotted as percentage activation of the test compound relative to the efficacy of 10 μM S1P.

[3] = 33P-S1P competition, membranes of CHO cells expressing human S1P1, read-out: S1P1 Binding IC50
[4] = [35S]GTPγS, S1P1/CHO cell membranes, read-out: GTPγS S1P1 EC50
[5] = [35S]GTPγS, EDG3-Gal5-bla HEK293T cell membranes, read-out: GTPγS S1P3 EC50
[6] = phosphate examples, read-out: S1P1 Binding
[7] = phosphate examples, read-out: S1P1 GTPγS
[8] = phosphate examples, read-out: S1P3 GTPγS

Sequence of S1P1 (membranes prepared from S1P1/CHO cells) (P21453 whole entry): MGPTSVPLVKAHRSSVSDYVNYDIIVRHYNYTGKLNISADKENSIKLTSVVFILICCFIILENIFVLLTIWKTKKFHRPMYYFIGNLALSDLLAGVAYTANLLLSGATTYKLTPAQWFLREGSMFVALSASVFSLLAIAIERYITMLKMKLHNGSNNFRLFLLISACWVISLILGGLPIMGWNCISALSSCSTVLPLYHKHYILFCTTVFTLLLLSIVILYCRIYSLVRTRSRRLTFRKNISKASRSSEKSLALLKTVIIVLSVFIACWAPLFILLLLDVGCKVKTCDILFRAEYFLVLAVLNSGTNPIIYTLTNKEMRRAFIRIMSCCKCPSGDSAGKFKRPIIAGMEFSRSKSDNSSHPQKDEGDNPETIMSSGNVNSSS
Sequence of hS1P1/CHO cells (P21453 whole entry): as above
Sequence of human S1P1 (P21453 whole entry): as above
Sequence of S1P3 (membranes prepared from EDG3-Gal5-bla HEK293T cells) (Q99500 whole entry): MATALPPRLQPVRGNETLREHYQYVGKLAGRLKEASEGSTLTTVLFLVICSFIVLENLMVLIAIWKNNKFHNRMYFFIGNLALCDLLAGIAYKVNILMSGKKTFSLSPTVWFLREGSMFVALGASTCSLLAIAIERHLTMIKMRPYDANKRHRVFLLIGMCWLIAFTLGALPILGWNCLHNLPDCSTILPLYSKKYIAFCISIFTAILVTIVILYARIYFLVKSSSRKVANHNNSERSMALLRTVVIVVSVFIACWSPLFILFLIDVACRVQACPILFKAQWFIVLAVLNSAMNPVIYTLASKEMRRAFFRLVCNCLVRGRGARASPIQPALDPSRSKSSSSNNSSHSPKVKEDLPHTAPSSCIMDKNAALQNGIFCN

EC50 [2, 5] [nM]	IC50 (human S1P1; [6]) [nM]	EC50 [1, 7] [nM]	EC50 [2, 8] [nM]	SMILES	other results
> 2000				COCCCCCC1CCc2cc([C@H]3CC[C@](N)(COP(=O)(O)O)C3)ccc2C1 (single isomer, unassigned) [Example 689]	IC50 (human S1P1; [3]): 1.7 nM; activity as an agonist of S1P1 [1]: possessed activity as an agonist of S1P1; EC50 [1, 4]: 5.7 nM; selectivity over S1P3 ([2]; GTPγS S1P1 versus GTPγS S1P3, result in words): selective over S1P3; EC50 ([2]; membranes prepared from EDG3-Gal5-bla HEK293T cells, read-out: GTPγS S1P3 EC50): > 2000 nM
> 625				COCCCCCC1CCc2cc([C@H]3CC[C@](N)(COP(=O)(O)O)C3)ccc2C1 (single isomer, unassigned) [Example 690]	IC50 (human S1P1; [3]): 3 nM; EC50 [1, 4]: 21.4 nM
> 625				COCCCCCC1CCc2cc([C@@H]3CC[C@](N)(COP(=O)(O)O)C3)ccc2C1 (single isomer, unassigned) [Example 692]	IC50 (human S1P1; [3]): 2.3 nM
> 4160				COc1cccc(CCC2CCc3cc([C@H]4CC[C@](N)(COP(=O)(O)O)C4)ccc3C2)c1 (single isomer, unassigned) [Example 693]	
> 1250				COc1cccc(CCC2CCc3cc([C@H]4CC[C@](N)(COP(=O)(O)O)C4)ccc3C2)c1 (single isomer, unassigned) [Example 694]	EC50 [1, 4]: 38.6 nM
> 625				CCOCCCC1CCc2cc([C@H]3CC[C@](N)(COP(=O)(O)O)C3)ccc2C1 (single isomer, unassigned) [Example 695]	
> 1000				CCOCCCC1CCc2cc([C@H]3CC[C@](N)(COP(=O)(O)O)C3)ccc2C1 (single isomer, unassigned) [Example 696]	EC50 [1, 4]: 1.2 nM
> 1000				COc1ccccc1CC[C@@H]1CCc2cc([C@H]3CC[C@](N)(COP(=O)(O)O)C3)ccc2C1 (single isomer, unassigned) [Example 697]	
> 625				COc1ccccc1CCC1CCc2cc(C3CC[C@](N)(COP(=O)(O)O)C3)ccc2C1 (single isomer, unassigned) [Example 698]	
> 1250				COc1cccc(OCC2CCc3cc([C@@H]4CC[C@](N)(COP(=O)(O)O)C4)ccc3C2)c1 (single isomer, unassigned) [Example 701]	
> 625				COc1cccc(OCC2CCc3cc([C@@H]4CC[C@](N)(COP(=O)(O)O)C4)ccc3C2)c1 (single isomer, unassigned) [Example 702]	
	10 to 100	10 to 100	> 625	CC(C)=CCOCCO[C@@H]1CCc2cc(C3CCC(N)(COP(=O)(O)O)C3)ccc2C1 (single isomer, unassigned) [compound 580]	
		10 to 100	> 625	N[C@@]1(COP(=O)(O)O)CC[C@@H](c2ccc3c(c2)CC[C@H](OCCOC2CCCCC2)C3)C1 (single isomer, unassigned) [compound 585]	
				COc1ccccc1CCC1CCc2cc([C@H]3CC[C@](N)(COP(=O)(O)O)C3)ccc2C1 (some centres unmarked) [Example 697]	activity as an agonist of S1P1 [1]: possessed activity as an agonist of S1P1
> 625				COc1ccccc1CC[C@@H]1CCc2cc([C@@H]3CC[C@](N)(COP(=O)(O)O)C3)ccc2C1 [Example 699]	
	1000 to 10000		> 625	CCCCCCN1CCc2cc([C@H]3CC[C@](N)(COP(=O)(O)O)C3)ccc2C1=O [compound 416]	
			> 625	CCCCCCC1CCc2cc([C@H]3CC[C@](N)(COP(=O)(O)O)C3)ccc2O1 (some centres unmarked) [compound 419]	EC50 (hS1P1/CHO cells): 10 to 100 nM

EC50 [2, 5] [nM]	IC50 (human S1P1; [6]) [nM]	EC50 [1, 7] [nM]	EC50 [2, 8] [nM]	SMILES	other results
	10 to 100		> 625	CCCCCCO[C@@H]1CCc2cc([C@@H]3CC[C@](N)(COP(=O)(O)O)C3)ccc2C1 [compound 435]	
		< 10		COc1ccc(F)c(OC[C@@H]2CCc3cc([C@H]4CC[C@](N)(COP(=O)(O)O)C4)ccc3C2)c1 [compound 486]	EC50 (hS1P1/CHO cells): 10 to 100 nM
		< 10	> 625	CC(C)CN(C)C(=O)c1cccc(OC[C@@H]2CCc3cc([C@H]4CC[C@](N)(COP(=O)(O)O)C4)ccc3C2)c1 [compound 500]	EC50 (hS1P1/CHO cells): < 10 nM
		< 10	> 625	CC(C)COCC[C@@H]1CCc2cc([C@H]3CC[C@](N)(COP(=O)(O)O)C3)ccc2C1 [compound 542]	EC50 (hS1P1/CHO cells): < 10 nM
		< 10	> 625	CC(C)COCC[C@H]1CCc2cc([C@H]3CC[C@](N)(COP(=O)(O)O)C3)ccc2C1 [compound 543]	EC50 (hS1P1/CHO cells): < 10 nM
		10 to 100	> 625	COc1ccc(C[C@@H]2CCc3cc([C@H]4CC[C@](N)(COP(=O)(O)O)C4)ccc3C2)cc1F [compound 554]	EC50 (hS1P1/CHO cells): 10 to 100 nM
	< 10	< 10	> 625	N[C@@]1(COP(=O)(O)O)CC[C@@H](c2ccc3c(c2)CC[C@H](OCCOCc2ccccc2)C3)C1 [compound 581]	
	< 10	< 10	> 625	C=CCCOCCO[C@H]1CCc2cc([C@@H]3CC[C@@](N)(COP(=O)(O)O)C3)ccc2C1 [compound 584]	
	1000 to 10000	10 to 100	> 625	CCCCCCC1CCc2nc([C@@H]3CC[C@@](N)(COP(=O)(O)O)C3)ccc2C1 (some centres unmarked) [compound 612]	
	1000 to 10000	100 to 1000	> 625	N[C@]1(COP(=O)(O)O)CCC(c2ccc3c(c2)CN(CCCc2ccccc2)C3=O)C1 (some centres unmarked) [compound 614]	
	100 to 1000	100 to 1000	> 625	CC1(C)c2cc([C@@H]3CC[C@](N)(COP(=O)(O)O)C3)ccc2C(=O)N1CCCc1ccccc1 [compound 615]	
	100 to 1000		> 625	CCCCCC(=O)N1CCc2cc([C@H]3CC[C@@](N)(COP(=O)(O)O)C3)ccc2C1 [compound 617]	
	10 to 100	< 10	> 625	CCCCCC[C@H]1CCc2cc([C@H]3CC[C@](N)(COP(=O)(O)O)C3)c(I)cc2C1 [compound 620]	
	< 10	< 10	> 625	CCCCCC[C@H]1CCc2cc([C@H]3CC[C@](N)(COP(=O)(O)O)C3)c(C)cc2C1 [compound 622]	
	< 10	< 10	> 625	CCCCCC(=O)OC1CCc2cc([C@H]3CC[C@](N)(COP(=O)(O)O)C3)ccc2C1 (some centres unmarked) [compound 623]	
	100 to 1000	100 to 1000	> 625	CC(C)CO/N=C1/CCc2cc([C@H]3CC[C@](N)(COP(=O)(O)O)C3)ccc2C1 [compound 666]	
